{"source": "patent USRE40862E1", "about": "“Gossypolone for the treatment of cancer” (priority 1990, dated 2009)", "key": {"SW-13 cells": {"system": "SW-13 cells", "test": "In vitro gossypol treatment: SW-13 cell proliferation", "assay_type": "cell-based, human", "conditions": "5 and 50 uM gossypol, prolonged exposure (1-6 days)", "experimental": "SW-13 cells were seeded (1×10^4 cells) into 25 cm^2 tissue culture flasks in Dulbecco's minimal Eagle's medium supplemented with fetal calf serum (10%), 100 ug/ml streptomycin, 100 units/ml penicillin, and 2 mM glutamine.\nSw-13 cells were seeded in a 25-cm^2 tissue culture flask (Costar, Cambridge, Mass.) at densities of 1×10^4 cells/5 ml of Dulbecco's minimal Eagle's medium, supplemented with 10% fetal calf serum, 100 ug/ml streptomycin, 100 units/ml penicillin, and 2 mM glutamine. The cells were grown in a humidified, 37° C. incubator with a 5% CO2/95% air atmosphere. A gossypol stock solution in absolute ethanol was added to the culture medium to yield final concentrations of 0, 0.5, 5, and 50 uM gossypol with a 0.1% final ethanol concentration. After 1, 2, 4, or 6 days of incubation, the culture medium containing a few floating cells was removed. Adherent cells were typsinized (0.1% trypsin, w/v) and counted using a hemocytometer. Cell viability was determined by trypan blue exclusion."}, "clinical": {"test": "clinical", "conditions": "human, in vivo", "protocol": "(§1) Gossypol acetic acid, 10 mg compressed tablet, was given orally at a dose of 20 mg/d which was increased by 10 mg/d every three days to a dose of 50 mg/d."}, "[1]": {"system": "SW-13 human adrenocortical carcinoma", "test": "Gossypol in SW-13 tumor bearing nude mice (preexisting tumors)", "assay_type": "in vivo", "conditions": "for Mean tumor size (mean ± SE): length×width; for Total deaths / Prevalence of tumor: preexisting tumors", "experimental": "Nude mice (Charles River, Kingston, N.Y.) weighing 20-35 g were caged in a temperature-controlled (26-28° C.), 12 h/12 h light/dark animal room. A microporous cage bonnet served as an effective protective barrier between the animal and the outside environment. In addition, the room was continuously purged with […]. The cages, feeders, and water bottles were designed to make standard mouse chow and water readily available while minimizing the opportunity for the transfer of communicable pathogens.\nAnother experiment was designed wherein 48 adult male nude mice weighing 25-35 g were injected s.c. with 2×10^6 SW-13 cells. One month later, the animals were divided into two groups of 24. There were 7 nude mice without visible tumors in each group. The gossypol treated animals received 30 mg gossypol acetic acid/kg body weight/day whereas control animals were fed an equal volume of carrier. Body weigths and tumor sizes (lengths×width, cm^2) were measured weekly. During the 12th week of treatment, 5 control animals died. Since it appeared unlikely that the remaining control animals would survive for another week, they were then sacrificed. Autopsies were performed on all animals including those that died during the study period. Internal organs were examined for the presence of gross tumor.\nData are expressed as the mean±SD unless otherwise indicated. Statistical comparisons were made using an unpaired Student's t test.\nIn this experiment, nude mice had been given s.c. injections of SW-13 adrenocortical carcinoma 1 month prior to initiation of the treatment with either gossypol or carrier."}, "cancers": {"system": "cancers", "conditions": "cited from earlier work"}, "[2]": {"system": "metastatic adrenocortical carcinoma", "test": "Phase 1 clinical trial of oral gossypol for adrenocortical cancer", "protocol": "as §1"}, "[3]": {"conditions": "mouse; Rao et al. (1985); cited from earlier work"}, "adrenocortical carcinoma": {"system": "adrenocortical carcinoma", "test": "Previous therapy of the patient with adrenocortical carcinoma", "assay_type": "in vivo, human", "conditions": "person, hepatic metastases, before gossypol"}, "[4]": {"conditions": "patient 26, lung, liver, dose 70, 3 weeks"}, "[5]": {"conditions": "patient 27, abdomen, pelvis, dose 50, 6 weeks"}, "[6]": {"conditions": "patient 34, abdomen, liver, dose 40-50, 12 weeks"}, "[7]": {"conditions": "patient 52, abdomen, dose 40, 6 weeks"}, "[8]": {"conditions": "person, after three weeks, gossypol acetic acid tablets 20 to 50 mg/d oral"}}, "note": "Several values for one entry are separate records, joined by “and”; a condition that tells them apart may be missing. Equal values may be shown once. Entries after “also recorded” stand apart in the source; their conditions may differ."}
{"smiles": "Cc1cc2c(C(C)C)c(O)c(O)c(C=O)c2c(O)c1-c1c(C)cc2c(C(C)C)c(O)c(O)c(C=O)c2c1O", "note": "[Gossypol, gossypol]", "values": [{"measurement": "effect on proliferation of SW-13 cells", "setting": "SW-13 cells", "result": "inhibited cell proliferation"}, {"measurement": "concentration at 6 weeks", "setting": "clinical; female, oral, 40 mg/d", "result": 4.44, "unit": "ng/mL"}, {"measurement": "concentration at 3 weeks", "setting": "clinical; male", "result": 10.2, "unit": "ng/mL"}, {"measurement": "concentration at 12 weeks", "setting": "clinical; male, oral", "result": 2.91, "unit": "ng/mL"}, {"measurement": "concentration at 6 weeks", "setting": "clinical; male, oral, 50 mg/d", "result": 2.29, "unit": "ng/mL"}, {"measurement": "total tumor burden (cumulative surface area), control relative to gossypol group", "setting": "[1]; 12th week, FIG. 2", "result": "twice"}, {"measurement": "effect on body weights", "setting": "[1]; 12 weeks of gossypol treatment", "result": "no significant effect"}, {"measurement": "body weight at the end of the study period (mean ± SD)", "setting": "[1]; after 12 weeks, 30 mg/kg/day oral", "result": "30.9 ± 3.6", "unit": "g"}, {"measurement": "number of deaths in the gossypol-treated group", "setting": "[1]; during 12 weeks of treatment, group of 24, 10 deaths in control group", "result": "two"}, {"measurement": "Mean tumor size (mean ± SE)", "setting": "[1]; week 0, 30 mg/kg/day oral", "result": "0.08 ± 0.02", "unit": "cm^2"}, {"measurement": "Total deaths", "setting": "[1]; week 0, 30 mg/kg/day oral", "result": 0, "unit": "%"}, {"measurement": "Prevalence of tumor", "setting": "[1]; week 0, 30 mg/kg/day oral, 30 mg/kg/day", "result": 72, "unit": "%"}, {"measurement": "Prevalence of tumor", "setting": "[1]; week 0, 30 mg/kg/day oral, listed as gossypol, 30 mg/kg/day", "result": 71, "unit": "%"}, {"measurement": "Mean tumor size (mean ± SE)", "setting": "[1]; week 1, 30 mg/kg/day oral", "result": "0.07 ± 0.02", "unit": "cm^2"}, {"measurement": "Prevalence of tumor", "setting": "[1]; week 1, 30 mg/kg/day oral", "result": 63, "unit": "%"}, {"measurement": "Total deaths", "setting": "[1]; week 1, 30 mg/kg/day oral", "result": 0, "unit": "%"}, {"measurement": "Mean tumor size (mean ± SE)", "setting": "[1]; week 2, 30 mg/kg/day oral", "result": "0.12 ± 0.04^a cm^2"}, {"measurement": "Prevalence of tumor", "setting": "[1]; week 2, 30 mg/kg/day oral", "result": 50, "unit": "%"}, {"measurement": "Total deaths", "setting": "[1]; week 2, 30 mg/kg/day oral", "result": 0, "unit": "%"}, {"measurement": "Mean tumor size (mean ± SE)", "setting": "[1]; week 3, 30 mg/kg/day oral", "result": "0.15 ± 0.05^a cm^2"}, {"measurement": "Prevalence of tumor", "setting": "[1]; week 3, 30 mg/kg/day oral", "result": 54, "unit": "%"}, {"measurement": "Total deaths", "setting": "[1]; week 3, 30 mg/kg/day oral", "result": 0, "unit": "%"}, {"measurement": "Mean tumor size (mean ± SE)", "setting": "[1]; week 4, 30 mg/kg/day oral", "result": "0.20 ± 0.07^a cm^2"}, {"measurement": "Prevalence of tumor", "setting": "[1]; week 4, 30 mg/kg/day oral", "result": 50, "unit": "%"}, {"measurement": "Total deaths", "setting": "[1]; week 4, 30 mg/kg/day oral", "result": 0, "unit": "%"}, {"measurement": "Mean tumor size (mean ± SE)", "setting": "[1]; week 5, 30 mg/kg/day oral", "result": "0.28 ± 0.08^a cm^2"}, {"measurement": "Prevalence of tumor", "setting": "[1]; week 5, 30 mg/kg/day oral", "result": 58, "unit": "%"}, {"measurement": "Total deaths", "setting": "[1]; week 5, 30 mg/kg/day oral", "result": 0, "unit": "%"}, {"measurement": "Mean tumor size (mean ± SE)", "setting": "[1]; week 6, 30 mg/kg/day oral", "result": "0.32 ± 0.10^a cm^2"}, {"measurement": "Prevalence of tumor", "setting": "[1]; week 6, 30 mg/kg/day oral", "result": 58, "unit": "%"}, {"measurement": "Total deaths", "setting": "[1]; week 6, 30 mg/kg/day oral", "result": 0, "unit": "%"}, {"measurement": "Mean tumor size (mean ± SE)", "setting": "[1]; week 7, 30 mg/kg/day oral", "result": "0.38 ± 0.12^a cm^2"}, {"measurement": "Prevalence of tumor", "setting": "[1]; week 7, 30 mg/kg/day oral", "result": 58, "unit": "%"}, {"measurement": "Total deaths", "setting": "[1]; week 7, 30 mg/kg/day oral", "result": 0, "unit": "%"}, {"measurement": "Mean tumor size (mean ± SE)", "setting": "[1]; week 8, 30 mg/kg/day oral", "result": "0.45 ± 0.14^a cm^2"}, {"measurement": "Prevalence of tumor", "setting": "[1]; week 8, 30 mg/kg/day oral", "result": 58, "unit": "%"}, {"measurement": "Total deaths", "setting": "[1]; week 8, 30 mg/kg/day oral", "result": 0, "unit": "%"}, {"measurement": "Mean tumor size (mean ± SE)", "setting": "[1]; week 9, 30 mg/kg/day oral", "result": "0.50 ± 0.15^a cm^2"}, {"measurement": "Prevalence of tumor", "setting": "[1]; week 9, 30 mg/kg/day oral", "result": 54, "unit": "%"}, {"measurement": "Total deaths", "setting": "[1]; week 9, 30 mg/kg/day oral", "result": 0, "unit": "%"}, {"measurement": "Mean tumor size (mean ± SE)", "setting": "[1]; week 10, 30 mg/kg/day oral", "result": "0.59 ± 0.18^a cm^2"}, {"measurement": "Prevalence of tumor", "setting": "[1]; week 10, 30 mg/kg/day oral", "result": 54, "unit": "%"}, {"measurement": "Total deaths", "setting": "[1]; week 10, 30 mg/kg/day oral", "result": 0, "unit": "%"}, {"measurement": "Mean tumor size (mean ± SE)", "setting": "[1]; week 11, 30 mg/kg/day oral", "result": "0.68 ± 0.21^a cm^2"}, {"measurement": "Prevalence of tumor", "setting": "[1]; week 11, 30 mg/kg/day oral", "result": 54, "unit": "%"}, {"measurement": "Total deaths", "setting": "[1]; week 11, 30 mg/kg/day oral", "result": 0, "unit": "%"}, {"measurement": "Mean tumor size (mean ± SE)", "setting": "[1]; week 12, 30 mg/kg/day oral", "result": "0.81 ± 0.25 (n = 22) cm^2"}, {"measurement": "Prevalence of tumor", "setting": "[1]; week 12, 30 mg/kg/day oral", "result": 54, "unit": "%"}, {"measurement": "Total deaths", "setting": "[1]; week 12, 30 mg/kg/day oral", "result": 8.3, "unit": "%"}, {"measurement": "anti-tumor effective dose in animals", "setting": "cancers", "result": "~10", "unit": "mg/kg/day"}, {"measurement": "tumor responses among the five patients", "setting": "[2]; five patients of Table 3", "result": "two exhibited partial tumor responses, one has stable disease, and two showed tumor progression"}, {"measurement": "dose above which toxicity begins to occur in humans", "setting": "[2]; humans", "result": "1 to 2", "unit": "mg/kg/day"}, {"measurement": "dose at which the anti-tumor effect occurs in humans", "setting": "[2]; humans, approximately one tenth of dose effective in animals", "result": "~1", "unit": "mg/kg/day"}, {"measurement": "side effects in treatment of human cancers", "setting": "[2]; humans, compared to conventional therapies", "result": "mild fatigue, muscle tremor, dry mouth, dry skin, and occasional nausea"}, {"measurement": "Response", "setting": "[2]; [4]", "result": "Pro-"}, {"measurement": "Side Effects", "setting": "[2]; [4]", "result": "Xerostomia; also recorded: Nausea; also recorded: Trans-"}, {"measurement": "Response", "setting": "[2]; [5]", "result": "Pro-"}, {"measurement": "Side Effects", "setting": "[2]; [5]", "result": "Xerostomia; also recorded: Fatigue"}, {"measurement": "Response", "setting": "[2]; [6]", "result": "Stabili-"}, {"measurement": "Side Effects", "setting": "[2]; [6]", "result": "Xerostomia; also recorded: Fatigue; also recorded: Nausea"}, {"measurement": "Response", "setting": "[2]; [7]", "result": "Partial"}, {"measurement": "Side Effects", "setting": "[2]; [7]", "result": "Xerostomia; also recorded: Fatigue; also recorded: Nausea"}, {"measurement": "side effects experienced during gossypol treatment", "setting": "[2]; person, 20 to 50 mg/d oral", "result": "fatigue, xerostomia, tremor, and trasnminitis"}, {"measurement": "clinical symptoms", "setting": "[2]; person, after three weeks of treatment", "result": "improvement in abdominal pain, ascites, and pulmonary function"}, {"measurement": "decrease in the size of the hepatic metastases on CT scans", "setting": "[2]; [8]", "result": "> 50", "unit": "%"}, {"measurement": "pulmonary metastases on CT scans", "setting": "[2]; [8]", "result": "complete resolution"}, {"measurement": "higher doses shown to be lethal", "setting": "[3]", "result": "0.8 mg/mouse and 1.6 mg/mouse"}]}
{"smiles": "Cc1ccc(C(=O)Nc2ccc(S(=O)(=O)O)c3cc(S(=O)(=O)O)cc(S(=O)(=O)O)c23)cc1NC(=O)c1cccc(NC(=O)Nc2cccc(C(=O)Nc3cc(C(=O)Nc4ccc(S(=O)(=O)O)c5cc(S(=O)(=O)O)cc(S(=O)(=O)O)c45)ccc3C)c2)c1", "note": "[Suramin]", "values": [{"measurement": "tumor course under treatment", "setting": "adrenocortical carcinoma", "result": "progressed"}]}
